In one data set the test system is tumor cell A549. Nature of the data set: Tumor cell inhibition, Cell Titer-Glo cell viability. To be noted: Homo sapiens, A549 cells, 72 h. The data set is classed as cell-based. How it is done: The activities of example compounds to tumor cell A549 were evaluated.
Experimental materials: DMEM high-glucose cell culture media (Hyclone Company), fetal calf serum (FBS) (Gibco Company), penicillin and streptomycin were purchased from North China Pharmaceutical Co., Ltd, phosphate buffer saline (PBS) was purchased from Gibco Company, Cell Titer-Glo® cell viability detection reagent was purchased from Promega Company, pancreatin and dimethylsulfoxide (DMSO) were products of Sigma Company. A549 cell line (human lung adenocarcinoma cell line) was purchased from ATCC.
(§1) The cells were inoculated on a 96-well plate with white wall and penetrative bottom (Costar) in amount of 5000 cells per well, cultured at condition of 37° C., 5% CO2 for 24 h. The compounds to be tested were dissolved with DMSO and diluted to 100 mM, to obtain mother liquids of the compounds.
DMEM culture solution containing 2% FBS was used to diluted the compounds, in which concentration gradients were 3, and concentration range was 100 μM to 3 nM. The compounds in various dilution degrees were added to the cultured cells on the 96-well plate, 100 μl per well. Culture was performed at 37° C., CO2 for 72 h, supernatant was discarded, and cell viability detection test was performed.
(§2) AfterCell Titer-Glo® reaction buffer solution was mixed with isometric substrate, the mixture was added to 96-well plate, 100 μl per well. Cell lysis was induced by horizontally shaking for 4 min. Reaction signal was stabilized by balancing at room temperature for 15 min. Chemiluminescence units in each well of the 96-well plate were detected by using chemiluminescence detector.
Inhibition rates at different dilution degrees of each compound were calculated according to chemiluminescence value of each well, and Origin 8.0 software was used for S-type curve fitting of each compound, and for calculating EC50 value.

For data set [1], the system named is multi-drug resistant tumor cell line MES-SA. Nature of the data set: Inhibition of drug-resistant tumor cell line, Cell Titer-Glo cell viability; therapeutic index against MRC5 cells. The data set is classed as cell-based. To be noted: Homo sapiens, 72 h. How it is done: The activity of example compounds to multi-drug resistant tumor cell line MES-SA was evaluated.
Experimental materials: DMEM high-glucose cell culture media (Hyclone Company), fetal calf serum (FBS) (Gibco Company), penicillin and streptomycin were purchased from North China Pharmaceutical Co., Ltd, phosphate buffer saline (PBS) was purchased from Gibco Company, Cell Titer-Glo® cell viability detection reagent was purchased from Promega Company, pancreatin and dimethylsulfoxide (DMSO) were products of Sigma Company. MES-SA cell line (human uterine sarcoma cell line) was purchased from ATCC. MRC5 cell (human embryonic lung fibroblast) was purchased from ATCC.
as §1
DMEM culture solution containing 2% FBS was used to diluted the compounds, in which concentration gradients were 3, and concentration range was 100 μM to 0.046 μM. The compounds in various dilution degrees were added to the cultured cells on the 96-well plate, 100 μl per well. Culture was performed at 37° C., CO2 for 72 h, supernatant was discarded, and cell viability detection test was performed.
as §2
Inhibition rates at different dilution degrees of each compound were calculated according to chemiluminescence value of each well, and Origin 8.0 software was used for S-type curve fitting of each compound, and for calculating EC50 value. The ratio of EC50 value of compound for MRC5 cell to EC50 value of compound for MES-SA cell was used as therapeutic index for the compound.

Data set [2] in a line: Solubility test (Chinese Pharmacopoeia 2010, Part II). Type of data set: physicochemical. To be noted: water, thermodynamic from solid.

Structures can show the parent of a compound that is named as a salt. Some results are limits rather than exact numbers.

In the case of `CO[C@H]1C[C@@H]2CC[C@@H](C)[C@@](O)(O2)C(=O)C(=O)N2CCCC[C@H]2C(=O)O[C@H]([C@H](C)C[C@@H]2CC[C@@H](O)[C@H](OC)C2)CC(=O)[C@H](C)/C=C(\C)[C@@H](OC(=O)C[n+]2csc(C)c2C)[C@@H](OC)C(=O)[C@H](C)C[C@H](C)/C=C/C=C/C=C/1C` [Example 6, 31-O-carbonylmethyl-(4,5-dimethyl-thiazole bromide salt-3-yl)-rapamycin], the IC50 with tumor cell A549 is 52.3 µM; in data set [1] it was < 0.046 µM.

In the case of `CO[C@H]1C[C@@H]2CC[C@@H](C)[C@@](O)(O2)C(=O)C(=O)N2CCCC[C@H]2C(=O)O[C@H]([C@H](C)C[C@@H]2CC[C@@H](OC(=O)C[n+]3cccc(O)c3)[C@H](OC)C2)CC(=O)[C@H](C)/C=C(\C)[C@@H](O)[C@@H](OC)C(=O)[C@H](C)C[C@H](C)/C=C/C=C/C=C/1C.[Br-]` [Example 12, 42-O-carbonylmethyl-(3-hydroxy-pyridine bromide salt-1-yl)-rapamycin], the melting point was 146 to 148 °C. This compound gave an IC50 with tumor cell A549 of 51.5 µM. In addition, the IC50 in data set [1] was < 0.046 µM.

Turning to `CO[C@H]1C[C@@H]2CC[C@@H](C)[C@@](O)(O2)C(=O)C(=O)N2CCCC[C@H]2C(=O)O[C@H]([C@H](C)C[C@@H]2CC[C@@H](OC(=O)C[n+]3cscc3C)[C@H](OC)C2)CC(=O)[C@H](C)/C=C(\C)[C@@H](OC(=O)C[n+]2cscc2C)[C@@H](OC)C(=O)[C@H](C)C[C@H](C)/C=C/C=C/C=C/1C.[Br-].[Br-]` [Example 1, 31,42-O-carbonylmethyl-(4-methyl-thiazole bromide salt-3-yl)-rapamycin], the melting point lay in the range of 142 to 145 °C. The compound also showed an IC50 with tumor cell A549 of 17.4 µM. This compound also came in with a solubility in data set [2] of 34.5 mg/mL. Moreover, the IC50 in data set [1] is < 0.046 µM.

Turning to `CO[C@H]1C[C@@H]2CC[C@@H](C)[C@@](O)(O2)C(=O)C(=O)N2CCCC[C@H]2C(=O)O[C@H]([C@H](C)C[C@@H]2CC[C@@H](OC(=O)C[n+]3cccc(O)c3)[C@H](OC)C2)CC(=O)[C@H](C)/C=C(\C)[C@@H](OC(=O)C[n+]2cccc(O)c2)[C@@H](OC)C(=O)[C@H](C)C[C@H](C)/C=C/C=C/C=C/1C.[Br-].[Br-]` [Example 8, 31,42-O-carbonylmethyl-(3-hydroxy-pyridine bromide salt-1-yl)-rapamycin], the melting point is 120 to 124 °C. Besides, in the data set on tumor cell A549, the IC50 came to 46 µM. The solubility in data set [2] was determined as 0.1 mg/mL. The 50% inhibitory concentration (IC50) in data set [1] is < 0.046 µM.

With `CO[C@H]1C[C@@H]2CC[C@@H](C)[C@@](O)(O2)C(=O)C(=O)N2CCCC[C@H]2C(=O)O[C@H]([C@H](C)C[C@@H]2CC[C@@H](OC(=O)C[n+]3ccccc3)[C@H](OC)C2)CC(=O)[C@H](C)/C=C(\C)[C@@H](OC(=O)C[n+]2ccccc2)[C@@H](OC)C(=O)[C@H](C)C[C@H](C)/C=C/C=C/C=C/1C.[Br-].[Br-]` [Example 7, 31,42-O-carbonylmethyl-(pyridine bromide salt-1-yl)-rapamycin], the melting point was in the range of 140 to 142 °C. The compound further returned a half-maximal inhibitory concentration (IC50) in the data set on tumor cell A549 of 46.7 µM. This compound yielded a solubility in data set [2] of 85 mg/mL. Further, the IC50 in data set [1] was < 0.046 µM.

For `CO[C@H]1C[C@@H]2CC[C@@H](C)[C@@](O)(O2)C(=O)C(=O)N2CCCC[C@H]2C(=O)O[C@H]([C@H](C)C[C@@H]2CC[C@@H](OC(=O)C[n+]3csc(C)c3C)[C@H](OC)C2)CC(=O)[C@H](C)/C=C(\C)[C@@H](O)[C@@H](OC)C(=O)[C@H](C)C[C@H](C)/C=C/C=C/C=C/1C` [Example 5, 42-O-carbonylmethyl-(4,5-dimethyl-thiazole bromide salt-3-yl)-rapamycin], the IC50 in the data set with tumor cell A549 is 7.4 µM; in data set [1], < 0.046 µM.

In the case of `CO[C@H]1C[C@@H]2CC[C@@H](C)[C@@](O)(O2)C(=O)C(=O)N2CCCC[C@H]2C(=O)O[C@H]([C@H](C)C[C@@H]2CC[C@@H](OC(=O)C[n+]3csc(C)c3C)[C@H](OC)C2)CC(=O)[C@H](C)/C=C(\C)[C@@H](OC(=O)C[n+]2csc(C)c2C)[C@@H](OC)C(=O)[C@H](C)C[C@H](C)/C=C/C=C/C=C/1C.[Br-].[Br-]` [Example 4, 31,42-O-carbonylmethyl-(4,5-dimethyl-thiazole bromide salt-3-yl)-rapamycin], the IC50 with tumor cell A549 was 6.23 µM; in data set [1], < 0.046 µM. For the same compound, in data set [2], the solubility was found to be 100 mg/mL.

Compound `CO[C@H]1C[C@@H]2CC[C@@H](C)[C@@](O)(O2)C(=O)C(=O)N2CCCC[C@H]2C(=O)O[C@H]([C@H](C)C[C@@H]2CC[C@@H](OC(=O)C[n+]3cscc3C)[C@H](OC)C2)CC(=O)[C@H](C)/C=C(\C)[C@@H](O)[C@@H](OC)C(=O)[C@H](C)C[C@H](C)/C=C/C=C/C=C/1C.[Br-]` [Example 2, 42-O-carbonylmethyl-(4-methyl-thiazole bromide salt-3-yl)-rapamycin] displayed a melting point of 130 to 133 °C. This compound showed an IC50 with tumor cell A549 of 19.3 µM. The IC50 in data set [1] was < 0.046 µM.

Turning to `CO[C@H]1C[C@@H]2CC[C@@H](C)[C@@](O)(O2)C(=O)C(=O)N2CCCC[C@H]2C(=O)O[C@H]([C@H](C)C[C@@H]2CC[C@@H](O)[C@H](OC)C2)CC(=O)[C@H](C)/C=C(\C)[C@@H](OC(=O)C[n+]2cccc(C)c2)[C@@H](OC)C(=O)[C@H](C)C[C@H](C)/C=C/C=C/C=C/1C.[Br-]` [Example 15, 31-O-carbonylmethyl-(3-methyl-pyridine bromide salt-1-yl)-rapamycin], the melting point lay within 138 to 140 °C. In addition, the midpoint of inhibition in the data set with tumor cell A549, the IC50, lay at 52.7 µM. Further, the IC50 in data set [1] is < 0.046 µM.

Turning to `CO[C@H]1C[C@@H]2CC[C@@H](C)[C@@](O)(O2)C(=O)C(=O)N2CCCC[C@H]2C(=O)O[C@H]([C@H](C)C[C@@H]2CC[C@@H](OC(=O)C[n+]3ccccc3)[C@H](OC)C2)CC(=O)[C@H](C)/C=C(\C)[C@@H](O)[C@@H](OC)C(=O)[C@H](C)C[C@H](C)/C=C/C=C/C=C/1C.[Br-]` [Example 10, 42-O-carbonylmethyl-(pyridine bromide salt-1-yl)-rapamycin], the melting point was in the range of 135 to 137 °C. In addition, the IC50 in the data set with tumor cell A549 came out at 66.3 µM. Also, the IC50 in data set [1] was found to be 10.9 µM.

`CO[C@H]1C[C@@H]2CC[C@@H](C)[C@@](O)(O2)C(=O)C(=O)N2CCCC[C@H]2C(=O)O[C@H]([C@H](C)C[C@@H]2CC[C@@H](O)[C@H](OC)C2)CC(=O)[C@H](C)/C=C(\C)[C@@H](OC(=O)C[n+]2cscc2C)[C@@H](OC)C(=O)[C@H](C)C[C@H](C)/C=C/C=C/C=C/1C.[Br-]` [Example 3, 31-O-carbonylmethyl-(4-methyl-thiazole bromide salt-3-yl)-rapamycin] displayed a melting point of 130 to 132 °C. Half-maximal inhibition with tumor cell A549 (IC50) was put at 3.04 µM. The half-inhibitory concentration (IC50) in data set [1] was < 0.046 µM.

On to `CO[C@H]1C[C@@H]2CC[C@@H](C)[C@@](O)(O2)C(=O)C(=O)N2CCCC[C@H]2C(=O)O[C@H]([C@H](C)C[C@@H]2CC[C@@H](O)[C@H](OC)C2)CC(=O)[C@H](C)/C=C(\C)[C@@H](OC(=O)C[n+]2ccccc2)[C@@H](OC)C(=O)[C@H](C)C[C@H](C)/C=C/C=C/C=C/1C.[Br-]` [Example 16, 31-O-carbonylmethyl-(pyridine bromide salt-1-yl)-rapamycin], for which the melting point was 140 to 142 °C. In addition, half-maximal inhibition in the data set with tumor cell A549 (IC50) required 57.7 µM. Moreover, the IC50 in data set [1] was < 0.046 µM.

The values are drawn from patent US10160767B2 (Institute of Pharmacology and Toxicology Academy of …, priority 2014, dated 2018).
